Reference: BindingDB's records for doi:10.7270/Q2X34VZF (Burnham Center For Chemical Genomics, 2011)

Biological target: Phospholipase A2 (Homo sapiens, UniProt P04054)
Test: PLA2 enzyme inhibitors, dose response, counter-screen for ATG4B inhibitor project, biochemical, set 2 (AID 588586)

Sequence of Phospholipase A2 (P04054 whole entry): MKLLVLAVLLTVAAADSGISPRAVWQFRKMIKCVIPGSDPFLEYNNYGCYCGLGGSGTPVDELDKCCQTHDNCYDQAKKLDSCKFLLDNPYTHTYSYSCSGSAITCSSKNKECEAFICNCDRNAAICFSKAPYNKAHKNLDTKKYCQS

IC50 [µM]	Compound
22.3	Cc1ccc(NC2=NC(=O)C(=Cc3c(C)[nH]c4ccccc34)S2)cc1 [5-[(2-methyl-1H-indol-3-yl)methylene]-2-[(4-methylphenyl)imino]-1,3-thiazolidin-4-one]
10.5	CC1=CC(/C=N/n2c(COc3ccccc3)nc3ccccc3c2=O)C(=O)C([N+](=O)[O-])=C1 (stereo not drawn) [3-[[(E)-(3-methyl-5-nitro-6-oxocyclohexa-2,4-dien-1-ylidene)methyl]amino]-2-(phenoxymethyl)quinazolin-4-one]
2.47	Oc1ccc2ccccc2c1CN=Nc1nnc(-c2ncc[nH]2)c2ccccc12 [SMR000151639]
